Source: ChEMBL document CHEMBL4420071, “Method for treating skin with retinoids and retinoid boosters” (2013)

Assays:
[1] = biological target: T1, Diacylglycerol O-acyltransferase 1 (Bos taurus) (UniProt Q8MK44); settings: at 100 µM
T1 sequence (whole entry): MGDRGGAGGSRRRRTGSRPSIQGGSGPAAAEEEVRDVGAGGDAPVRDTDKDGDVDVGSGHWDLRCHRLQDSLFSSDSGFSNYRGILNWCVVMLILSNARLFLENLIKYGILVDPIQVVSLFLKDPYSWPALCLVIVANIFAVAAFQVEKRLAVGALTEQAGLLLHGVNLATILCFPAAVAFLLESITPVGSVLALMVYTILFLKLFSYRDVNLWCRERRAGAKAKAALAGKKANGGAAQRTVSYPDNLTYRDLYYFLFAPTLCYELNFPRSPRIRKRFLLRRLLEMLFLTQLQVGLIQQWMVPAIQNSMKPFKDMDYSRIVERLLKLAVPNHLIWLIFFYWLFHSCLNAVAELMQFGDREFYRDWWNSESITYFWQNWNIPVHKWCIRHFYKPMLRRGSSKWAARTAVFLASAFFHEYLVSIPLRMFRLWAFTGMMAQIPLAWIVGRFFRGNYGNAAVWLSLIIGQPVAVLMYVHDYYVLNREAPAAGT
Description: Inhibition of ARAT in bovine RPE microsomes at 100 uM using retinol substrate in presence of dilauroyl-phosphatidyl choline incubated for 5 mins by HPLC analysis relative to control

[2] = organism: Homo sapiens
Description: Inhibition of transglutaminase in human keratinocytes in presence of 10 uM retinal relative to retinal alone

[3] = biological target: T2, Lecithin retinol acyltransferase (Bos taurus) (UniProt Q9BGL2); test: Inhibition of LRAT in bovine RPE microsomes at 10 uM using retinol substrate in presence of Palmitoyl-CoA incubated for 5 mins by HPLC analysis relative to control
T2 sequence (whole entry): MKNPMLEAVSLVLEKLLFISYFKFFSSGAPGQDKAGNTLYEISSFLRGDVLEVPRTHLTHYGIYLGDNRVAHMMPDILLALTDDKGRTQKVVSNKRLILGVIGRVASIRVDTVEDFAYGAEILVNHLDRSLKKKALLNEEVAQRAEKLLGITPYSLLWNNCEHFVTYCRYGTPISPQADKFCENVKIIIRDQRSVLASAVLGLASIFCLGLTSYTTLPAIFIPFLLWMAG

[4] = organism: Homo sapiens; test: Inhibition of transglutaminase in human keratinocytes assessed as mean transglutaminase activity level at 3.3 10^-6M in presence of 10 uM retinal relative to retinal alone; type: cell-based; parameters: scale not given: the % may be the effect or the level left
[5] = organism: Homo sapiens; test: Inhibition of transglutaminase in human keratinocytes assessed as mean transglutaminase activity level at 1.23 10^-7M in presence of 10 uM retinal relative to retinal alone; type: cell-based; parameters: scale not given: the % may be the effect or the level left
[6] = organism: Rattus norvegicus; test: Inhibition of retinal reductase in Sprague-Dawley rat liver microsomes at 100 uM using all-trans retinaldehyde and NADPH by HPLC analysis relative to control
[7] = organism: Homo sapiens; test: Inhibition of transglutaminase in human keratinocytes assessed as mean transglutaminase activity level at 1.65 10^-9M in presence of 10 uM retinal relative to retinal alone; type: cell-based; parameters: scale not given: the % may be the effect or the level left
[8] = organism: Homo sapiens; test: Inhibition of transglutaminase in human keratinocytes assessed as mean transglutaminase activity level at 3.73 10^-7M in presence of 10 uM retinal relative to retinal alone; type: cell-based; parameters: scale not given: the % may be the effect or the level left
[9] = organism: Homo sapiens; test: Inhibition of transglutaminase in human keratinocytes assessed as mean transglutaminase activity level at 1 10^-5M in presence of 10 uM retinal relative to retinal alone; type: cell-based; parameters: scale not given: the % may be the effect or the level left
[10] = organism: Homo sapiens; test: Inhibition of transglutaminase in human keratinocytes assessed as mean transglutaminase activity level at 3.29 10^-9M in presence of 10 uM retinal relative to retinal alone; type: cell-based; parameters: scale not given: the % may be the effect or the level left
[11] = organism: Homo sapiens; test: Inhibition of transglutaminase in human keratinocytes assessed as mean transglutaminase activity level at 4.1 10^-8M in presence of 10 uM retinal relative to retinal alone; type: cell-based; parameters: scale not given: the % may be the effect or the level left
[12] = organism: Homo sapiens; test: Inhibition of transglutaminase in human keratinocytes assessed as mean transglutaminase activity level at 1.1 10^-6M in presence of 10 uM retinal relative to retinal alone; type: cell-based; parameters: scale not given: the % may be the effect or the level left
[13] = organism: Homo sapiens; test: Inhibition of transglutaminase in human keratinocytes assessed as mean transglutaminase activity level at 8.2 10^-8M in presence of 10 uM retinal relative to retinal alone; type: cell-based; parameters: scale not given: the % may be the effect or the level left
[14] = organism: Homo sapiens; test: Inhibition of transglutaminase in human keratinocytes assessed as mean transglutaminase activity level at 3 10^-5M in presence of 10 uM retinal relative to retinal alone; type: cell-based; parameters: scale not given: the % may be the effect or the level left
[15] = biological target: T2, Lecithin retinol acyltransferase (Bos taurus); settings: at 100 µM
Description: Inhibition of LRAT in bovine RPE microsomes at 100 uM using retinol substrate in presence of Palmitoyl-CoA incubated for 5 mins by HPLC analysis relative to control

[16] = biological target: T1, Diacylglycerol O-acyltransferase 1 (Bos taurus); test: Inhibition of ARAT in bovine RPE microsomes at 10 uM using retinol substrate in presence of dilauroyl-phosphatidyl choline incubated for 5 mins by HPLC analysis relative to control
[17] = organism: Homo sapiens; test: Inhibition of transglutaminase in human keratinocytes assessed as mean transglutaminase activity level at 1.65 10^-7M in presence of 10 uM retinal relative to retinal alone; type: cell-based; parameters: scale not given: the % may be the effect or the level left
[18] = organism: Homo sapiens; test: Inhibition of transglutaminase in human keratinocytes assessed as mean transglutaminase activity level at 1.1 10^-8M in presence of 10 uM retinal relative to retinal alone; type: cell-based; parameters: scale not given: the % may be the effect or the level left
[19] = organism: Homo sapiens; test: Inhibition of transglutaminase in human keratinocytes assessed as mean transglutaminase activity level at 4.1 10^-5M in presence of 10 uM retinal relative to retinal alone; type: cell-based; parameters: scale not given: the % may be the effect or the level left
[20] = organism: Homo sapiens; test: Inhibition of transglutaminase in human keratinocytes assessed as mean transglutaminase activity level at 8.2 10^-6M in presence of 10 uM retinal relative to retinal alone; type: cell-based; parameters: scale not given: the % may be the effect or the level left
[21] = organism: Homo sapiens; test: Inhibition of transglutaminase in human keratinocytes assessed as mean transglutaminase activity level at 3.73 10^-4M in presence of 10 uM retinal relative to retinal alone; type: cell-based; parameters: scale not given: the % may be the effect or the level left
[22] = biological target: T3, Cellular retinoic acid-binding protein 2 (Homo sapiens) (UniProt P29373); test: Inhibition of radioactive all-trans retinoic acid binding to CRABP2 (unknown origin) expressed in Escherichia coli BLR(DE3)pLys incubated for 1 hr by scintillation counting assay; settings: concentration not given here
T3 sequence (whole entry): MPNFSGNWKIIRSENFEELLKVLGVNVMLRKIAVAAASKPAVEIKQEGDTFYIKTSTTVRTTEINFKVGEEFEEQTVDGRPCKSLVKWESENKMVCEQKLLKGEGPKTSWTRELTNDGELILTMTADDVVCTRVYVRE

[23] = organism: Homo sapiens; test: Inhibition of transglutaminase in human keratinocytes assessed as mean transglutaminase activity level at 1.1 10^-4M in presence of 10 uM retinal relative to retinal alone; type: cell-based; parameters: scale not given: the % may be the effect or the level left
[24] = organism: Homo sapiens; test: Inhibition of transglutaminase in human keratinocytes assessed as mean transglutaminase activity level at 1.23 10^-5M in presence of 10 uM retinal relative to retinal alone; type: cell-based; parameters: scale not given: the % may be the effect or the level left
[25] = organism: Homo sapiens; test: Inhibition of transglutaminase in human keratinocytes assessed as mean transglutaminase activity level at 5.0 10^-8M in presence of 10 uM retinal relative to retinal alone; type: cell-based; parameters: scale not given: the % may be the effect or the level left

With `CC(=O)/C=C/C=C(\C)CCC=C(C)C` the inhibition [1] was 12%.
`CC(C)(O)CCCC1=CCC(C=O)CC1` (centres undefined) gave an IC20 [2] of 4 ×10⁻⁵ M.
In the case of `C=CCCC(=O)/C=C/C1C(C)=CCCC1(C)C` (centres undefined), the inhibition [3] is reported as 17%.
Work on `C[C@H]1[C@H](C)CC[C@]2(C(=O)O)CC[C@]3(C)C(=CC[C@@H]4[C@@]5(C)CC[C@H](O)C(C)(C)[C@@H]5CC[C@]43C)[C@H]12` yielded an IC20 [2] of 5.94 ×10⁻⁷ M.
`O=c1ccc2ccccc2[nH]1` gave an IC20 [2] of 1.7 ×10⁻⁴ M.
`CC1(C)[C@@H](O)CC[C@]2(C)[C@H]3C(=O)C=C4[C@@H]5C[C@@](C)(C(=O)O)CC[C@]5(C)CC[C@@]4(C)[C@]3(C)CC[C@@H]12` was tested, and the Activity [4] was 2.5%, the Activity [5] was 112% and the inhibition [6] was 38%. It also gave an IC20 [2] of 5.96 ×10⁻⁶ M, an Activity [7] of 103% and an Activity [8] of 120%. For the same compound, the Activity [9] was 0.7%, the Activity [10] was 100% and the Activity [11] was 93%. The Activity [12] was 96.4%, the Activity [13] was 225% and the Activity [14] was -0.3%.
`CC(C)=CCC/C(C)=C/CC/C(C)=C/CC/C(C)=C/CO` gave an inhibition [3] of 16%, an inhibition [15] of 77% and an inhibition [16] of 38%. The inhibition [1] was 81%.
Work on `C/C=C/C(=O)C1=C(C)CCCC1(C)C` yielded an inhibition [16] of 45%.
`CC(C)=CCCC(C)=CCCC(C)=CCO` was tested, and the inhibition [3] was 10%, the inhibition [15] was 53% and the IC20 [2] was 7.82 ×10⁻⁵ M. It also gave an inhibition [16] of 23% and an inhibition [1] of 53%.
Compound `O=C(O)CCCCCCCCCCCCCCC(=O)O` has an Activity [17] of 95%, an IC20 [2] of 8.4 ×10⁻⁵ M and an Activity [18] of 70%. It also gave an Activity [19] of 105%, an Activity [20] of 114% and an Activity [21] of 43.4%. It also gave an inhibition [22] greater than 50%, an Activity [23] of 14.2% and an Activity [24] of 130%. It also gave an Activity [25] of 74%.
Work on `CC1=CC(C)C(CO)C(C)C1` (centres undefined) yielded an inhibition [15] of 16% and an inhibition [1] of 18%.
For `C/C=C/C(=O)C1=C(C)C=CCC1(C)C`, the inhibition [3] was 29%, the inhibition [15] was 79% and the inhibition [1] was 70%.
In the case of `C/C=C/C(=O)C1=C(C)CC(C)(C)CC1`, the inhibition [1] is reported as 80%.
Work on `Clc1ccc(COC(Cn2ccnc2)c2ccc(Cl)cc2Cl)c(Cl)c1` (centres undefined) yielded an IC20 [2] of 8.42 ×10⁻⁸ M.
In the case of `CC(=O)C1(C)C2CC3C(C2)C31C` (centres undefined), the inhibition [15] is reported as 12% and the inhibition [1] is reported as 23%.
Work on `CC(=O)c1cc2c(cc1C)C(C)(C)C(C)CC2(C)C` (centres undefined) yielded an inhibition [15] of 33%.
In the case of `C/C=C\C(=O)C1C(C)=CCCC1(C)C` (centres undefined), the inhibition [3] is reported as 87%, the inhibition [15] is reported as 98% and the IC20 [2] is reported as 1.69 ×10⁻⁴ M. It also gave an inhibition [16] of 67% and an inhibition [1] of 83%.
Compound `CC(C)(C)C(=O)C(Oc1ccc(Cl)cc1)n1ccnc1` (centres undefined) has an IC20 [2] of 2.45 ×10⁻⁷ M.
In the case of `CCCCC/C=C\C/C=C\CCCCCCCC(=O)N(CCO)CCO`, the inhibition [3] is reported as 11%, the inhibition [15] is reported as 51% and the inhibition [16] is reported as 12%. For the same compound, the inhibition [1] was 43%.
`O=c1c2cccc3cccc(c32)c2nc3ccccc3n12` showed an IC20 [2] of 4.69 ×10⁻⁷ M.
`CC(/C=C/C=C(\C)C(=O)O)=C\C=C\C=C(C)\C=C\C=C(/C)C(=O)O` showed an inhibition [3] of 0% and an IC20 [2] of 2.52 ×10⁻⁵ M.
For `CCCCC/C=C\C/C=C\CCCCCCCC(=O)NCCO`, the inhibition [3] was 20% and the IC20 [2] was 1.48 ×10⁻⁵ M.
For `CCC(=O)C=CC1C(C)=CCCC1(C)C` (centres undefined), the inhibition [15] was 77% and the inhibition [1] was 67%.
